Measured values from patent US12329739B2, “Isoflavonoid compounds and methods for the treatment of cancer” (Aardvark Therapeutics, Inc., priority 2010, dated 2025).

Key:
[1] = tested on: A2058; test: MTT proliferation assay, A2058; format: cell-based; details: Homo sapiens, A2058, 120 h, Table 2, Melanoma, A2058, 120 hrs of exposure
Method: (§1) Proliferation Assays. IC50 values were determined for each cell line. Cells were seeded in 96-well plates at an appropriate cell density as determined from growth kinetics analysis and cultured for 5 days in the absence and presence of the test compounds. Cell proliferation was assessed after the addition of 20 μl of 3-4,5 dimethylthiazol-2,5-diphenyl tetrazolium bromide (MTT, 5 mg/ml in PBS, Sigma) for 5 hrs at 37° C. according to manufacturer's instructions. IC50 values were calculated from semi-log plots of % of control proliferation on the y-axis against log dose on the x-axis.
(§2) Anti-proliferative Activity of Isoflavonoid Derivatives. IC50 values were determined for each cell line after 120 h of exposure.

[2] = tested on: MM2200; test: MTT proliferation assay, MM2200; format: cell-based; details: Table 2, Melanoma, MM2200, 120 hrs of exposure
Method: as §1, §2
Activity data is provided is Table 2.

[3] = tested on: SKBR-3; test: MTT proliferation assay, SKBR-3; format: cell-based, human; details: Table 2, Breast, SKBR-3, 120 hrs of exposure
Method: The human colorectal adenocarcinoma line HCT-116 (CCL-247) and the human breast adenocarcinoma line SK-BR-3 (HTB-30) were cultured in McCoy's 5a Medium (Invitrogen) containing 1.5 mM L-glutamine and 2.2 g/L sodium bicarbonate. The human colorectal adenocarcinoma line SW620 (CCL-227) was cultured in Leibovitz's L-15 Medium (Invitrogen) containing 2.05 mM L-glutamine.
as §1, §2

[4] = tested on: MDA-MB-468; test: MTT proliferation assay, MDA-MB-468; format: cell-based, human; details: Table 2, Breast, MDA-MB-468, 120 hrs of exposure
Method: The human gastric cancer cell line AGS (CRL-1739) was cultured in Hams F-12K (Kaighans modification) medium containing 2 mM L-glutamine, 2.5 g/L sodium bicarbonate and 2 mM sodium pyruvate. The human breast adenocarcinoma line MDA-MB-468 (HTB-132) was cultured in DMEM:F12 (1:1) medium containing 2.5 mM L-glutamine, 2.4 g/L sodium bicarbonate, supplemented with an additional 2 mM L-glutamine.
as §1, §2

[5] = tested on: A2780; test: MTT proliferation assay, A2780; format: cell-based; details: Table 2, Ovarian, A2780, 120 hrs of exposure
Method: as §1, §2

[6] = tested on: A2780 ovarian cancer cells; test: Combination with carboplatin, proliferation of A2780 cells; format: cell-based; details: for enhancement of the anti-cancer effect of carboplatin: A2780, depending on exposure regimen (24 hr concurrent or sequential)
Method: In vitro toxicity in normal and cancer cells. Cells were seeded in 96-well plates at an appropriate cell density as determined from growth kinetics analysis. Depending on the plating efficiency and lag phase of individual cell lines, cells were allowed to plate down prior to drug exposure. Intra-experimental single agent controls were included to ensure IC50 values obtained for each cell line matched previous IC50 determinations. Four analogue concentrations were employed in each analysis. Analogue concentrations used in each assay were chosen based on IC50 values, which formed the top concentration of analogue used. Subsequent concentrations were chosen based on simple ½ or 1/10 dilutions of the top analogue concentration employed (i.e. 2, 1, 0.5, 0.25 μM). Nine 1/10 serial dilutions of chemotherapeutic were employed with the top chemotherapeutic concentration being 50 μM.
For combined analysis, analogue concentrations were held constant through 1/10 serial dilutions of chemotherapeutic in growth medium (top chemotherapeutic concentration employed was 50 μM). Combined cultures were cultured for 5 days.
The sequence of administration effect of each agent on chemotherapeutic IC50 values was assessed by exposing plated cells to a single agent in sequence for 24 hr. To assess the isoflavonoid derivative→chemotherapeutic sequence, plated cells were first exposed to the appropriate analogue concentrations and incubated at 37° C. for 24 hr. Cells were washed with growth medium and then exposed to the appropriate chemotherapeutic concentrations and incubated for 24 hr. Cells were then washed and incubated for a further 3 days. To assess the chemotherapeutic→isoflavonoid derivative sequence, the procedure was reversed.
Cell proliferation was assessed after the addition of 20 μl of 3-4,5 dimethylthiazol-2,5-diphenyl tetrazolium bromide (MTT, 2.5 mg/ml in PBS, Sigma) for 3-4 hrs at 37° C. according to manufacturer's instructions. IC50 values were calculated from semi-log plots of % of control proliferation on the y-axis against log dose on the x-axis.
3-D model analysis of the cytotoxic interaction between drug A and drug B enables the representation of predicted inhibitory effect of two drugs in combination in 3 dimensions to reveal actual regions of synergy or antagonism. The 3D synergy plots are based on a theory of “Theoretical Additivity” (TA or […]) as outlined by Kanzawa et al. Theoretical Additivity was calculated from the cytotoxicities of drug A and drug B as monotherapies using the following formula which assumes the drugs are mutually exclusive inhibitors: […]
The TA is calculated for each combination of drug concentrations and subtracted from the observed experimental effect for each combination to give a measurement of synergistic or enhanced action.
Combination index (CI) analysis, which employs the median-effect principle correlating drug dose to cytotoxicity, was also employed to assess synergy. The median-effect equation is utilized to calculate the dose of a drug that inhibits “x” percent of cells (Chou and Talalay, 1984). D=Dm[fa/(1−fa)]^1/m
In vitro Assessment of Combination of Optically Active Compound 31 and Carboplatin. Combination studies employed both 24 hr concurrent exposure, and 24 hr sequential exposure (racemic compound 32→Carboplatin) regimens. In both studies, four analogue concentrations (0.25, 0.5, 1 and 5 μM) were held constant against titrated carboplatin. When 1 and 5 μM of compound 32 was assessed in combination with the lowest concentration of carboplatin employed in this study (0.4 μM), no IC50 for carboplatin was achieved due the high levels of cell kill observed (30-40% of control).

[7] = tested on: CP70; test: MTT proliferation assay, CP70; format: cell-based; details: Table 2, Ovarian, CP70, 120 hrs of exposure
Method: as §1, §2

[8] = tested on: PC3; test: MTT proliferation assay, PC3; format: cell-based; details: Table 2, Prostate, PC3, 120 hrs of exposure
Method: as §1, §2

IC50 [3]: 510 to 1500 nM
IC50 [4]: 510 to 1500 nM
IC50 [5]: 510 to 1500 nM
IC50 [8]: 510 to 1500 nM
SMILES: Oc1ccc([C@H]2c3ccc(O)cc3OC[C@H]2c2ccc(O)cc2)cc1 (racemic) [Compound 32]
IC50 [1]: 150 to 500 nM
IC50 [2]: 510 to 1500 nM
enhancement of the anti-cancer effect of carboplatin ([6]; 0.25 μM of compound): 1.5-2 fold
enhancement of the anti-cancer effect of carboplatin ([6]; 0.5 μM of compound): 7-11 fold
cell kill level observed (no IC50 for carboplatin achieved) ([6]; 1 and 5 μM of compound plus 0.4 μM carboplatin, A2780): 30-40 % of control
compound concentration giving maximal activity enhancement with carboplatin ([6]; 3D method of Kanzawa, 12.5 μM carboplatin, A2780): 0.5 µM
IC50 [7]: 510 to 1500 nM
